Results taken from a melting point compilation (Tetko et al.; mined from patent text by program, amines drawn as free bases though some values may be those of a salt).

melting point [°C]	Structure (SMILES)
157	Cc1cc(C)nc(N(C(=O)n2cncn2)c2ccccc2)n1
123 to 125	NC(=O)CN1CC[C@H](OCc2cc(C(F)(F)F)cc(C(F)(F)F)c2)[C@H](c2ccccc2)C1 (relative stereo)
98 to 99.5	O=C1c2ccccc2C(=O)N1CCn1nnc(C(F)(F)F)n1
230 to 231	Cn1c(COc2ccc(CC3SC(=O)NC3=O)cc2)nc2ccccc21 (stereo not drawn)
169 to 171	CC(C)(N)CNc1ccnc2cc(Cl)ccc12
78	COc1ccc(SCCCC(=O)O)cc1OC
72 to 73	O=C(Cl)c1c(Oc2ccccc2)cccc1Oc1ccccc1
115 to 117	COC(=O)c1cccc(-c2nc(CO)cs2)c1
276 to 277	COc1cc(Nc2c(C#N)cnc3cc(-c4cc5ccccc5o4)ccc23)c(Cl)cc1Cl
93 to 94	Cc1ccc(C)c(OCCCC(C)(C)C(=O)Nc2cccc([N+](=O)[O-])c2)c1
107 to 109	CC(=O)N1CCC(=O)C(C2c3ccccc3CCc3ccccc32)C1 (stereo not drawn)
132 to 134	Cn1c2c(c3ccccc31)CCN1C(=O)CCC21C (stereo not drawn)
188 to 190	CCCc1cccc(N2CC(=O)NC(=O)N2)c1
168 to 170	Cn1nc(COc2ccc(C=O)cc2)c2ccccc2c1=O
198 to 200	Cc1nc(Nc2ccc(F)cc2)nc(N2CCc3ccccc3C2CO)c1C (stereo not drawn)
203	Clc1cccc(C(c2ccnc3ccccc23)n2cnnc2)c1 (stereo not drawn)
188 to 190	Cc1[nH]c2ccc(Br)cc2c1Cc1cccnc1
177 to 179	CN(C)CCCNc1c(-c2ccccc2)c(=O)[nH]c2cc(Cl)ccc12

melting point [°C]	Structure (SMILES)
134 to 136	COc1cc(NC2CCCCC2)c2ccccc2c1OC(C)=O
116 to 118	O=C1OC(c2ccc(F)cc2)c2ncccc21 (stereo not drawn)
95	c1ccc(-c2ccc(CCCN3CCN(c4ccccc4)CC3)o2)cc1
67 to 69	CCC(=O)NCC1CC1c1cccc2nnsc12 (stereo not drawn)
246 to 248	CCNc1ccc2c(c1)CN(c1cc3c(cc1F)c(=O)c(C(=O)O)cn3CC)C2
165 to 167	O=c1cc(CO)oc2ccccc12
210 to 212	COc1ccc(-c2coc3cc(O)ccc3c2=O)c(O)c1
106 to 108	Cc1noc(C)c1Cn1cc(NC(=O)Cc2ccccc2)cn1
159 to 163	CCCCN=C(O)c1c(Cl)c(Cl)c(Sc2ccccc2)c(Cl)c1C(=O)O
182 to 184	COc1ccc(Oc2c(N)cc(C(=O)O)cc2S)cc1
93 to 94	O=CCCN1CCc2cc(Br)ccc2C1=O
238 to 240	O=C1CCC(c2ccc(NC(=O)CCN3CCC(c4ccccc4)CC3)cc2)=NN1
116	OCC1=CC=C(COc2cccc(O)c2)SS1
320 to 323	O=C1CC(c2ccc(OCc3ccccc3)cc2)=Nc2ccc(N3CCOCC3)cc21
191 to 195	Cc1cc(C)c2cc(-c3ccccc3)c(N)nc2n1
78	O=C1CC[C@](CO)(COCc2ccccc2)O1
105 to 110	Nc1ncccc1OCc1ccccc1C(F)(F)F

Continued, molecule first:

Structure (SMILES)	melting point [°C]
C#CCNC(NCCSCc1[nH]cnc1C)=C(C#N)C#N	112 to 115
O=C(Nc1cccc(C(F)(F)F)c1F)c1cccnc1NCc1ccc(=O)[nH]c1	219 to 222
Cc1nc(-c2ccccc2)nc(-c2cccc([N+](=O)[O-])c2)c1C(C)N1CCN(C)CC1 (stereo not drawn)	130 to 131
CSc1ccc(-c2nn(Cc3ccc(F)cc3F)c(=O)cc2-c2ccc(Cl)cc2)cc1	157 to 158
Cc1ccc2c(c1)C(c1ccccc1)CC(NC(=O)Nc1cccc(Cl)c1)C(=O)N2CC(=O)NC(C)(C)C (stereo not drawn)	282 to 285
CCOC(=O)N1CCC(c2[nH]nc3c2C(=O)c2c(NC(=O)NN4CCOCC4)cccc2-3)CC1	206 to 207
O=C(NC(Cc1ccc(OCc2ccc(F)cc2)cc1)C(=O)O)c1cn2ccc(-c3ccc(Cl)cc3)cc2n1 (stereo not drawn)	255 to 257
COc1cc(C=CC(=O)C(C)C(=O)C=Cc2ccc(O)c(OC)c2)ccc1O (stereo not drawn)	180 to 183
C=CCC(C(N)=O)C(N)=O	168 to 169
O=C1c2cc3nnn(Cn4cc(Br)cn4)c(=O)c3cc2OC2CCCN12 (stereo not drawn)	180 to 181
COc1ccc(-c2[nH]c(=O)c3cc(OC)ccc3c2N2CCOCC2)cc1	139
COc1ccccc1CCl	69.5 to 70.5
CCOCCn1c(NC2CCN(CC(=O)O)CC2)nc2cccnc21	227
Cc1onc(-c2ccc(-c3cscn3)cc2)c1-c1ccc(S(C)(=O)=O)c(F)c1	130
CC1=NN(C)c2nc(C)c(CCO)c(=O)n2C1	140
COC(=O)CCC/C=C(\c1cc(F)cc(C(F)(F)F)c1)c1cc(C)c2on(C)c(=O)c2c1	97.5 to 98.5
O=C(Nc1ccc(CN2CCCCC2)cc1)C1=Cc2cc(-c3ccccc3)ccc2CC1	163 to 164
NC(=S)C1(c2ccccn2)SCCCS1	214
NS(=O)(=O)c1cccc(-c2cccc(-c3nc(-c4ccc(Cl)c(Cl)c4)cc(C(F)(F)F)n3)c2)c1	241
N#Cc1ccc(-c2ncc(Br)cn2)cc1	222
CC(C)(C)OC(=O)NCCc1ccc(OCCC2Oc3cc([N+](=O)[O-])ccc3N(Cc3cccc(Cl)c3)C2=O)cc1 (stereo not drawn)	82 to 85

Structure (SMILES)	melting point [°C]
Cc1cc(C)cc(Oc2ccc(-n3ccnc3)nn2)c1	170
CC1(CO)C(O)CCC2(C)C1CCC1CC3CC12CCC3(O)CO (stereo not drawn)	290 to 300
CCCCCCCCCCCCCCCCCCN(CCCCCCCCCCCCCCCCCC)CCCN(CC(=O)OC)CC(=O)OC	75 to 77
CC(C)NC(=O)CN1CCN(c2nnc(N)[nH]2)CC1	225 to 226
Cn1ncc(C(=O)c2ccc(S(C)(=O)=O)c3c2CC2CON=C32)c1OC(=O)c1ccccc1 (stereo not drawn)	86 to 93
CCOC(=O)C1=C(C)NC(C)=C(C(=O)OC)C1c1cc([N+](=O)[O-])ccc1Cl (stereo not drawn)	163 to 164
CCOC(=O)C1=C(C)NC(C)=C(C(=O)OCCN2CCN(C(c3ccccc3)c3ccccc3)CC2)C1c1ccccc1Cl (stereo not drawn)	76 to 78
O=C1NC(=O)C2(N1)C(=O)N(Cc1ccc(Br)cc1F)c1c(C(F)(F)F)cccc12 (stereo not drawn)	197 to 199
CCOc1ccc(C(=NO)c2ccc(OC)c(Cl)c2Cl)c(F)c1	188 to 189
CCN(CC)CC1CCCCN1CCNC(=O)N1c2ccccc2C(=O)Nc2cccnc21 (stereo not drawn)	175 to 176
CCCCCC(O)CCN1C(=O)NC(=O)C1CCCCCCC(=O)O (stereo not drawn)	63 to 65
CC(Oc1cc(Oc2ccc(C(F)(F)F)cc2Cl)ccc1[N+](=O)[O-])C(=O)NCC1CCCO1 (stereo not drawn)	102 to 104
CCOP(=O)(Cc1nnc2c(=O)[nH]c3ccc(Cl)cc3n12)OCC	223 to 227
O=C1CCC=C2N=CC=NC=C12	141 to 146
CC(C)N(CCOc1ccc(NC(=O)c2c[nH]c3c2C(=O)CCC3)cc1)C(C)C	140 to 141
CN(C)c1ccc(C(=O)Nc2cn3cc(-n4ccnc4)ccc3n2)cc1	247 to 248
Clc1cccc(/C=C/[C@H]2CCCN2c2ncnc3[nH]cnc23)c1	194 to 196
CSc1nn2c(N3CCN(C)CC3)cc(C)nc2c1S(=O)(=O)c1cccnc1	188 to 189
N#Cc1ccc(-c2cc(-c3ccc(C#N)cc3[N+](=O)[O-])on2)cc1	280 to 281
Brc1cn2c(Br)cnc2c(N2CCOCC2)n1	141
COc1ccc(S(=O)(=O)CC(CS(=O)(=O)c2ccc(OC)cc2)C(=O)NO)cc1	174

Structure (SMILES)	melting point [°C]
CCCS(=O)(=O)NC(=O)C[C@H]1O[C@H](c2cccc(OC)c2OC)c2cc(Cl)ccc2N(CC(C)(C)CO)C1=O	135 to 137
Cc1ccc(Cn2ncc(-c3ccc(S(C)(=O)=O)cc3)c(-c3ccc(F)cc3)c2=O)s1	172 to 175
CC(C)(C)OC(=O)Nc1cc(N2CCC3(CC2)OCCO3)c(I)cc1[N+](=O)[O-]	132 to 134
O=C(Nc1ccccc1)N1C(=O)C2(CCCCC2)N(O)C12CCCCC2	125 to 128
CC(C)c1c(Cl)nc(Cl)nc1Cl	69.4
COC(=O)c1cc(-c2nc(COc3ccc(COc4nn(-c5ccccc5)cc4C=O)cc3OC)c(C)o2)ccc1OS(C)(=O)=O	136 to 137
COc1cc(O)c2c(c1O)C1C=CC2C1 (stereo not drawn)	151 to 153
COc1ccc(N2CCN(c3ccc(N4C(=O)N(C(C)C(C)=O)C(C)(C)C4=O)cc3)CC2)cc1 (stereo not drawn)	226
CCNc1nc(-c2ccc(NC(=O)NCc3cccnc3)cc2)ccc1C(=O)NCCN1CCCCC1	164 to 165
CN1CC[C@H](NC(=O)c2ccccc2)[C@H](c2ccccc2)C1 (relative stereo)	154 to 155
CC(=O)N(C)c1cccc2c1nc(-c1c(F)cccc1F)n2Cc1c(F)cccc1F	155 to 156
CCCCc1nc(C(C)O)c(C(=O)OCC)[nH]1 (stereo not drawn)	149
O=C(NC1CCC1)c1cc(Nc2nc(N3CCCC3c3ccccn3)nc3ccoc23)[nH]n1 (stereo not drawn)	250
O=C1NC(=O)C(c2cn3c4c(cccc24)CCC3)=C1c1ccc(F)cc1	234 to 235
CCCS(=O)(=O)NCC1Cc2ccc(C3=NNC(=O)CC3)cc2C1 (stereo not drawn)	158 to 159
CC(=O)CCc1ccc2c(c1)COc1ccc(OCc3ccc4cc(F)c(Cl)cc4n3)cc1C2SCCC(=O)O (stereo not drawn)	115 to 118
Cn1c(=O)sc2cc(C(=O)CSCCC(=O)O)c(Cl)cc21	120 to 121
Cc1cc2[nH]c(=O)n(C3CCN(CCCN(c4ccc(F)cc4)c4ccc(F)cc4)CC3)c2cc1C	219 to 220
COC(=O)c1c(N)cccc1S(=O)(=O)NC(C)(C)C	132 to 133
COc1cc(C(C)C)c2c(c1)S(=O)(=O)N(COc1cc(C(F)(F)F)nn1-c1ccc([N+](=O)[O-])cc1)C2=O	185 to 187
CC1(C)Cc2cc(C(=O)O)sc2C1	170 to 172
